How the values were obtained:
[1] = system: HCT 116; test: MTT cytotoxicity assay, HCT 116; format: cell-based, human; settings: Homo sapiens, mean ± SD
[2] = system: carrageenan-induced rat paw edema; test: Carrageenan-induced rat paw edema model; format: in vivo; settings: for Rat Paw Thickness: mean ± SD; for inhibition in vivo at 2.5 mg/kg / inhibition in vivo at 5 mg/kg / inhibition in vivo at 10 mg/kg: Rattus norvegicus
In short: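 Rats dosed with compound in 1% DMSO at 2.5, 5 or 10 mg/kg 60 min before intraplantar injection of 0.5% carrageenan into left hind paw. Paw thickness measured by caliper at 0–4 h; % inhibition = 100 × [1 − (Yt/Yc)], comparing thickness increase in treated vs untreated rats.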

Question: Which IC50 ([1]; HCT-116, 24 h) does the source give for `COc1ccc2cc([C@H](C)C(=O)NC(=S)Nc3ccccc3OC)ccc2c1` [Compound 11, (S)-2-(6-methoxynaphthalen-2-yl)-N-((2-methoxyphenyl)carbamothioyl)propanamide] here?
Answer: Its IC50 is greater than 200 µM.

Question: And the IC50 ([1]; HCT-116, 48 h)?
Answer: The IC50 was greater than 200 µM.

Question: What about the IC50 ([1]; HCT-116, 72 h) of the same compound?
Answer: The IC50 was greater than 200 µM.

Question: What about the “Rat Paw Thickness” value ([2]; 2.5 mg/kg, 1 h after carrageenan) of the same compound?
Answer: The value was 7.30 ± 0.60 mm.

Question: And the “Rat Paw Thickness” value ([2]; 2.5 mg/kg, 2 h after carrageenan)?
Answer: The value was 6.97 ± 0.67 mm.

Question: What about the “Rat Paw Thickness” value ([2]; 2.5 mg/kg, 3 h after carrageenan) of the same compound?
Answer: The value was 6.67 ± 0.80 mm.

Question: And the “Rat Paw Thickness” value ([2]; 2.5 mg/kg, 4 h after carrageenan)?
Answer: The value was 6.50 ± 0.80 mm.

Question: What about the “Rat Paw Thickness” value ([2]; 5.0 mg/kg, 1 h after carrageenan) of the same compound?
Answer: Its value is 6.97 ± 0.12 mm.

Question: And the “Rat Paw Thickness” value ([2]; 5.0 mg/kg, 2 h after carrageenan)?
Answer: Its value is 6.73 ± 0.15 mm.

Question: What about the “Rat Paw Thickness” value ([2]; 5.0 mg/kg, 3 h after carrageenan) of the same compound?
Answer: Its value is 6.27 ± 0.23 mm.

Question: And the “Rat Paw Thickness” value ([2]; 5.0 mg/kg, 4 h after carrageenan)?
Answer: Its value is 6.07 ± 0.15 mm.

Question: And the “Rat Paw Thickness” value ([2]; 10.0 mg/kg, 1 h after carrageenan)?
Answer: Its value is 7.33 ± 0.06 mm.

Question: And the “Rat Paw Thickness” value ([2]; 10.0 mg/kg, 2 h after carrageenan)?
Answer: Its value is 6.93 ± 0.12 mm.

Question: What about the “Rat Paw Thickness” value ([2]; 10.0 mg/kg, 3 h after carrageenan) of the same compound?
Answer: Its value is 6.63 ± 0.15 mm.

Question: And the “Rat Paw Thickness” value ([2]; 10.0 mg/kg, 4 h after carrageenan)?
Answer: Its value is 6.17 ± 0.31 mm.

Question: And the inhibition in vivo at 2.5 mg/kg ([2]; 2.5 mg/kg, 1 h)?
Answer: The inhibition in vivo at 2.5 mg/kg was 22.4%.

Question: And the inhibition in vivo at 2.5 mg/kg ([2]; 2.5 mg/kg, 2 h)?
Answer: The inhibition in vivo at 2.5 mg/kg was 28.8%.

Question: And the inhibition in vivo at 2.5 mg/kg ([2]; 2.5 mg/kg, 3 h)?
Answer: Its inhibition in vivo at 2.5 mg/kg is 31.5%.

Question: And the inhibition in vivo at 2.5 mg/kg ([2]; 2.5 mg/kg, 4 h)?
Answer: Its inhibition in vivo at 2.5 mg/kg is 26.7%.

Question: And the inhibition in vivo at 5 mg/kg ([2]; 5.0 mg/kg, 1 h)?
Answer: Its inhibition in vivo at 5 mg/kg is 22.4%.

Question: And the inhibition in vivo at 5 mg/kg ([2]; 5.0 mg/kg, 2 h)?
Answer: The inhibition in vivo at 5 mg/kg was 24.2%.

Question: And the inhibition in vivo at 5 mg/kg ([2]; 5.0 mg/kg, 3 h)?
Answer: The inhibition in vivo at 5 mg/kg was 35.1%.

Question: What about the inhibition in vivo at 5 mg/kg ([2]; 5.0 mg/kg, 4 h) of the same compound?
Answer: Its inhibition in vivo at 5 mg/kg is 33.3%.

Question: What about the inhibition in vivo at 10 mg/kg ([2]; 10.0 mg/kg, 1 h) of the same compound?
Answer: The inhibition in vivo at 10 mg/kg was 10.2%.

Question: What about the inhibition in vivo at 10 mg/kg ([2]; 10.0 mg/kg, 2 h) of the same compound?
Answer: Its inhibition in vivo at 10 mg/kg is 18.2%.

Question: And the inhibition in vivo at 10 mg/kg ([2]; 10.0 mg/kg, 3 h)?
Answer: The inhibition in vivo at 10 mg/kg was 18.9%.

Question: And the inhibition in vivo at 10 mg/kg ([2]; 10.0 mg/kg, 4 h)?
Answer: The inhibition in vivo at 10 mg/kg was 31.1%.

Source: PMC10820527, “Synthesis, Characterization, and Investigation of Anti-Inflammatory and Cytotoxic Activities of Novel Thiourea Derivatives of Naproxen” (Pharmaceutics, 2023)
